# Tests used:
# [1] = system: B16-F10 mouse melanoma cells; test: B16-F10 syngeneic mouse model of melanoma; assay type: in vivo; conditions: B16-F10 mice; SX-682 50 mg/kg twice daily oral; anti-PD-1 100 μg twice weekly ip; treatment from day 18; N=4-5; FIG. 9
# Protocol: The B16-F10 mouse model is a validated model of melanoma, Overwijk, 2001, Curr Protoc Immunol, Chapter 20: Units 20-21 (herein incorporated by reference). It was used to evaluate the effect of SX-682 alone and in combination with anti-PD1 antibody. B16-F10 mouse melanoma cells were cultured, then mice were injected with 0.5×10^6 B16-F10 cells on day 0, and treatment was initiated on day 18. Mice were treated with vehicle (control), SX-682 alone (50 mg/kg twice daily, oral), anti-PD-1 alone (100 μg twice weekly, ip), or SX-682 in combination with anti-PD-1 (N=4-5 per cohort). SX-682 was used as a spray dried dispersion (Formulation Example 1), and was administered to mice via oral gavage as a suspension in 0.5% aq methylcellulose. […] Data and error bars are the mean±SE.
# [2] = system: 60 human tumor cell line panel; test: NCI 60 human tumor cell line panel, SRB growth inhibition; assay type: cell-based
# Protocol: The chemokine CXCL8 and its receptors CXCR1 and CXCR2 have been identified as important mediators of cellular proliferation for a number of tumor cell types. To validate the relationship between CXCR1 and CXCR2 receptor antagonism and inhibition of tumor cell proliferation, SX-682 was evaluated against the 60 human tumor cell line panel at five concentration levels (0.01, 0.1, 1, 10, 100 μM) as performed by the Developmental Therapeutics Program at the National Cancer Institute (Shoemaker, 2006, Nat Rev Cancer, 6:813-23).
# The human tumor cell lines of the cancer screening panel were grown in RPMI 1640 medium containing 5% fetal bovine serum and 2 mM L-glutamine. Cells were inoculated into 96 well microtiter plates in 100 μL at plating densities ranging from 5,000 to 40,000 cells/well depending on the doubling time of individual cell lines. After cell inoculation, the microtiter plates were incubated at 37° C., 5% CO2, 95% air and 100% relative humidity for 24 h prior to addition of SX-682.
# After 24 h, two plates of each cell line are fixed in situ with TCA, to represent a measurement of the cell population for each cell line at the time of drug addition (Tz). SX-682 was solubilized in dimethyl sulfoxide at 400-fold the desired final maximum test concentration and stored frozen prior to use. At the time of SX-682 addition, an aliquot of frozen concentrate was thawed and diluted to twice the desired final maximum test concentration with complete medium containing 50 μg/ml gentamicin. Additional four, 10-fold or ½ log serial dilutions are made to provide a total of five drug concentrations plus control. Aliquots of 100 μl of these different drug dilutions were added to the appropriate microtiter wells already containing 100 μl of medium, resulting in the required final drug concentrations.
# Following drug addition, the plates were incubated for an additional 48 h at 37° C., 5% CO2, 95% air, and 100% relative humidity. For adherent cells, the assay was terminated by the addition of cold TCA. Cells were fixed in situ by the gentle addition of 50 μl of cold 50% (w/v) TCA (final concentration, 10% TCA) and incubated for 60 minutes at 4° C. The supernatant was discarded, and the plates were washed five times with tap water and air dried. Sulforhodamine B (SRB) solution (100 μl) at 0.4% (w/v) in 1% acetic acid was added to each well, and plates were incubated for 10 minutes at room temperature. After staining, unbound dye was removed by washing five times with 1% acetic acid and the plates were air dried. Bound stain was subsequently solubilized with 10 mM TRIS, and the absorbance was read on an automated plate reader at a wavelength of 515 nm. For suspension cells, the methodology is the same except that the assay was terminated by fixing settled cells at the bottom of the wells by gently adding 50 μl of 80% TCA (final concentration, […]). Using the seven absorbance measurements (time zero, (Tz), control growth, (C), and test growth in the presence of drug at the five concentration levels (Ti)), the percentage growth was calculated at each of the drug concentrations levels. Percentage growth inhibition was calculated as: (Ti−Tz)/(C−Tz)×100 for concentrations for which Ti>/=Tz (Ti−Tz)/Tz×100 for concentrations for which Ti<Tz.
# Three dose response parameters were calculated for each experimental agent. […] The drug concentration resulting in total growth inhibition (TGI) is calculated from Ti=Tz. The LC50 (concentration of drug resulting in a 50% reduction in the measured protein at the end of the drug treatment as compared to that at the beginning) indicating a net loss of cells following treatment is calculated from (Ti−Tz)/Tz×100=−50. Values are calculated for each of these three parameters if the level of activity is reached; however, if the effect is not reached or is exceeded, the value for that parameter is expressed as greater or less than the maximum or minimum concentration tested.
# [3] = system: Pten^pc−/−p53^pc−/−Smad4^pc−/− mouse prostate tumors; test: Pten/p53/Smad4 triple knockout mouse model of castration resistant prostate cancer; assay type: in vivo; conditions: SX-682 50 mg/kg b.i.d. oral gavage; ICB 200 μg each anti-PD1 and anti-CTLA4 3×/week; 4-6 weeks; FIG. 12
# Protocol: The genetically engineered Pten^pc−/−p53^pc−/−Smad4^pc−/− mouse is a prostate-specific PB promoter-driven (PB-Cre4) conditional triple knockout model (i.e., prostate-specific deletion of all three tumor suppressors, Pten, p53 and Smad4 occurs in the ‘prostate cancer’ or ‘pc’). […] SX-682 was used as a spray dried dispersion (Formulation Example 1), and was administered to mice via oral gavage as a suspension in 0.5% aq. methylcellulose. Treatment was continued for 4-6 weeks and prostate weights measured to determine tumor burden. […] Mean±SE.
# [4] = system: TRIA mouse model of melanoma; test: TRIA mouse model of melanoma; assay type: in vivo; conditions: TRIA mice; SX-682 oral via medicated feed ~10 mg/day/mouse; CP 50 mg/kg ip once weekly; FIG. 7 and 8
# Protocol: The Tyrosine-Hras/Ink/Arf null (TRIA) is a validated mouse model of melanoma features an immuno-competent autochthonous tumor; Ras events are in >70% of all melanomas, and ˜50% lose the INK4a/ARF locus which, with B-RAF mutations, is the most common lesion of this cancer (Sharpless, 2016, Cancer Cell 29:832-45). Treatment regimens were started following tumor manifestation. SX-682 was given orally via medicated feed, at an approximate dose of 10 mg/day/mouse. Carboplatin (CP) was administered once weekly via intraperitoneal injection at a dose of 50 mg/kg.
# [5] = system: MDSCs isolated from blood of AOM/DSS-treated BALBc mice; test: GROα-mediated MDSC migration (transwell, flow cytometry count); assay type: cell-based, mouse; conditions: SX-682 0.1, 1 and 10 μM; GROα (CXCL1) 100 ng/ml; 12 hours; FIG. 2
# Protocol: Using the of method of Katoh, 2013, Cancer Cell, 24:631-44 (herein incorporated by reference), to induce and isolate MDSCs, male BALBc mice were given a single intraperitoneal injection of azoxymethane (AOM, 10 mg/kg). Seven days later, these mice were given 4 cycles of water and water containing 1.25% dextran sulfate sodium (DSS). One cycle consisted of providing mice with regular drinking water for 7 days, followed by 1.25% aqueous DSS for 7 days, followed by regular drinking water for 7 days. MDSCs were isolated from femurs and blood of AOM/DSS-treated BALBc mice using the Myeloid-Derived Suppressor Cell Isolation Kit (Miltenyi Biotec) after lysis of red blood cells (RBC) according to the manufacturer's instructions. GROα (CXCL1) was placed in the bottom chamber of a 24-well plate at a concentration of 100 ng/ml. MDSCs isolated from blood of AOM/DSS-treated BALBc mice were seeded at a density of 1×10^6/well in the upper chamber (3 m, BD Falcon). After incubation for 12 hours, migrated cells were quantified by flow cytometry using CountBright Absolute Counting Beads (Molecular Probes). […] The test concentrations of SX-682 were 0.1, 1 and 10 μM, and the DMSO concentration was ≤1%.
# [6] = system: T11 mouse model of breast cancer; test: T11 mouse model of breast cancer; assay type: in vivo; conditions: T11 mice; SX-682 oral via medicated feed ~10 mg/day/mouse; CP 50 mg/kg ip once weekly; 1-2 weeks; N=7; P<0.0001; FIG. 4
# Text: The T11 model is a validated mouse model of breast cancer, which derives from the serial orthotopic transplantation of a murine breast tumor derived from a p53-null mouse into a syngeneic p53 competent recipient, and features sporadic, somatic K-Ras mutation (Herschkowitz, 2012, Proc Natl Acad Sci, 109:2778-83, herein incorporated by reference). Tumors from the T11 model display an RNA expression pattern characteristic of the human claudin-low disease, and are extremely aggressive, with the majority of untreated animals surviving less than 21 days from the time of enrollment in the therapy studies. Treatment regimens were started following tumor manifestation. SX-682 was given orally via medicated feed, at an approximate dose of 10 mg/day/mouse. In brief, the medicated feed was prepared by Research Diets (New Brunswick, N.J.) by incorporating 15.2 grams of SX-682 spray dried dispersion (as prepared in Formulation Example 1) into 1042 grams of standard rodent diet with 10% kcals from fat. The medicated feed was formed into pellets. Carboplatin (CP) was administered once weekly via intraperitoneal injection at a dose of 50 mg/kg. […] Mean±SE. *** P<0.0001 (linear regression).
# [7] = system: Lewis lung carcinoma (LLC); test: LLC syngeneic mouse model of lung cancer; assay type: in vivo; conditions: LLC mice; SX-682 50 mg/kg twice daily oral; anti-PD-1 100 μg twice weekly ip; treatment from day 18; N=5; FIG. 10
# Protocol: The Lewis lung carcinoma (LLC) mouse model (Kellar, 2015, Biomed Res Int, 2015:621324, herein incorporated by reference) was used to evaluate the effect of SX-682 alone and in combination with anti-PD-1 antibody. LLC mouse […] cells were cultured, then mice were injected with 0.5×10^6 LLC cells on day 0, and on day 18 treatment was initiated. Mice were treated with vehicle (control), SX-682 alone (50 mg/kg twice daily, oral), anti-PD-1 alone (100 μg twice weekly, ip), or SX-682 in combination with anti-PD-1 (N=5 per cohort). SX-682 was used as a spray dried dispersion (Formulation Example 1), and was administered to mice via oral gavage as a suspension in 0.5% aq. methylcellulose. The results of this experiment can be seen in FIG. 10 and FIG. 11.
# [8] = system: C3Tag mouse model of breast cancer; test: C3Tag mouse model of breast cancer; assay type: in vivo; conditions: C3Tag mice; for median survival: SX-682 ~10 mg/day/mouse oral, CP 50 mg/kg ip weekly, up to 60 days, vehicle 18 days, FIG. 6
# Text: The C31-T-antigen (C3Tag) mouse model is a validated model of human triple-negative basal cell breast cancer as shown by gene expression analysis (Maroulakou, 1994, Proc Natl Acad Sci, 91:11236-40, herein incorporated by reference). The expressed large T-antigen binds and inactivates the RB and p53 tumor suppressor genes, explaining why this model faithfully recapitulates human basal breast cancer, which also harbors RB and p53 inactivation. This model also has frequent K-Ras amplification and infrequent Ras mutations. Treatment regimens were started following tumor manifestation. SX-682 was given orally via medicated feed, at an approximate dose of 10 mg/day/mouse. Carboplatin (CP) was administered once weekly via intraperitoneal injection at a dose of 50 mg/kg.
compound,measurement,setting,value
O=C(Nc1ccc(F)cc1)c1cnc(SCc2cc(OC(F)(F)F)ccc2B(O)O)nc1 [SX-682],tumor growth (tumor area),[1],significantly slowed tumor growth
same,proliferation of human tumor cells,"[2]; 60 cell lines, 0.01, 0.1, 1, 10, 100 μM, 48 h, FIG. 3A-3I",directly affect the proliferation of human tumor cells
same,"inhibition of tumor cell proliferation, renal cancer cell lines","[2]; 786-0, CAK-1, TK-10, RXF 393, UO-31, ACHN, SN12C, FIG. 3G",direct inhibition of tumor cell proliferation
same,"inhibition of tumor cell proliferation, non-small cell lung cancer cell lines","[2]; A549, H226, H460, H23, H522, H322M, HOP-62, HOP-92, FIG. 3B",direct inhibition of tumor cell proliferation
same,"inhibition of tumor cell proliferation, leukemia cell lines","[2]; CCRF-CEM, MOLT-4, HL-60, RPMI-8226, K-562, SR, 10^−8 to 10^−4 M, FIG. 3A",direct inhibition of tumor cell proliferation
same,"inhibition of tumor cell proliferation, colon cancer cell lines","[2]; COLO 205, HCT-15, HCC-2998, KM12, HCT-116, SW-620, FIG. 3C",direct inhibition of tumor cell proliferation
same,"inhibition of tumor cell proliferation, ovarian cancer cell lines","[2]; IBROV1, OVCAR-8, OVCAR-3, NCI/ADR-RES, OVCAR-5, SK-OV-3, FIG. 3F",direct inhibition of tumor cell proliferation
same,"inhibition of tumor cell proliferation, melanoma cell lines","[2]; LOX IMVI, MDA-MB-435, SK-MEL-5, MALME-3M, SK-MEL-2, UACC-257, M14, SK-MEL-28, UACC-62, FIG. 3E",direct inhibition of tumor cell proliferation
same,"inhibition of tumor cell proliferation, breast cancer cell lines","[2]; MCF7, BT-549, MDA-MB-231, T-47D, HS 578T, MDA-MB-468, FIG. 3I",direct inhibition of tumor cell proliferation
same,"inhibition of tumor cell proliferation, prostate cancer cell lines","[2]; PC-3, DU-145, FIG. 3H",direct inhibition of tumor cell proliferation
same,"inhibition of tumor cell proliferation, CNS cancer cell lines","[2]; SF-268, SNB-19, SF-295, SNB-75, SF-539, FIG. 3D",direct inhibition of tumor cell proliferation
same,tumor burden (prostate weight),[3],inhibited prostate cancer
same,tumor growth (tumor volume),[4],significantly slowed tumor growth comparable to CP alone
same,inhibition of GROα-mediated MDSC migration,[5],effectively inhibit GROα-mediated MDSC migration in a dose-dependent manner
same,tumor growth (tumor volume),[6],effective therapy for breast cancer
same,tumor growth (tumor area),[7],significantly slowed tumor growth
same,tumor growth (tumor volume),"[8]; SX-682 oral via medicated feed ~10 mg/day/mouse, CP 50 mg/kg ip once weekly, 4-6 weeks, N=10-12, FIG. 5",significantly reduced tumor growth as compared to untreated controls
same,median survival,[8],28 days
"N.N.O=C([O-])C1(C(=O)[O-])CCC1.[Pt+2] [carboplatin, reference compound]",median survival,[8],28 days
